From paper PMC7339578, “Multiple circulating alkaloids and saponins from intravenous Kang-Ai injection inhibit human cytochrome P450 and UDP-glucuronosyltransferase isozymes: potential drug–drug interactions” (Chinese Medicine, 2020) come the findings set out here.

As a reminder, the Cmax is the peak of the concentration-time curve. The term fraction unbound denotes free concentration divided by total concentration. As a reminder, the IC50 is the concentration at which inhibition is half-maximal. Usually Ki stands for the dissociation constant of the complex between target and ligand, obtained from inhibition or displacement.

The nature of data set [1]: Plasma pharmacokinetics in rats after a 30-min intravenous infusion of Kang-Ai injection. The data set is classed as in vivo, Sprague–Dawley rats. Particulars: male, Sprague-Dawley, 30-min iv infusion of Kang-Ai injection 6 mL/kg; for clearance / Vd: plasma, rat, Table 1 unit; for clearance: read-out: CLtot, p (converted); for Vd: read-out: VSS; for Cmax / half-life: rat plasma; for Cmax: read-out: Cmax; for half-life: read-out: t1/2 (converted). In outline: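 Fasted male Sprague–Dawley rats (250 ± 20 g) got a single 30-min tail-vein infusion of Kang-Ai injection at 6 mL/kg. Jugular blood was sampled from 5 min to 12 h for plasma. Parameters came from non-compartmental analysis (trapezoidal AUC), n = 3.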

Data set [2] in a line: Urinary (renal) excretion in rats after a 30-min infusion of Kang-Ai injection. The data set is classed as in vivo, Sprague–Dawley rats. The following applies: Kang-Ai injection 6 mL/kg iv; for CL renal: male, Sprague-Dawley, urine and plasma, rat, read-out: CLR (renal excretory clearance) (converted); for fe-U,0–12h (fraction of dose excreted into urine): rat urine 0–12 h. In outline: (§1)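 Urine collected in metabolic cages at 0–4, 4–8, 8–12 h and bile at 0–3, 3–6, 6–9, 9–12 h after infusion start, weighed and frozen at −80 °C. Non-compartmental analysis; CLR and CLB as cumulative urinary or biliary amount divided by plasma AUC0-∞, fe-U and fe-B as cumulative amount/dose; mean ± SD (n = 3).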

The nature of data set [3]: Biliary (hepatobiliary) excretion in rats after a 30-min infusion of Kang-Ai injection. The data set is classed as in vivo, Sprague–Dawley rats. The following applies: Kang-Ai injection 6 mL/kg iv. A digest of the protocol: as §1
Data set [4] in a line: Protein binding assay (equilibrium dialysis). The data set is classed as in vitro ADME, rat. Particulars: rat plasma; equilibrium dialysis 24 h, 37 °C; 2 μmol/L alkaloids, 4 μmol/L saponins; read-out: fu-plasma (unbound fraction). In outline:
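Rat plasma binding was measured by equilibrium dialysis (12–14 kDa cutoff membrane), equilibrated 24 h at 37 °C and 55 rpm. Alkaloids were tested at 2 μmol/L and saponins at 4 μmol/L. Unbound fraction = dialysate concentration/post-dialysis plasma concentration × 100%.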
Background: In equilibrium dialysis free small molecules cross a membrane that holds back macromolecules.

The target of data set [5] is T1, CYP1A2 (Homo sapiens, UniProt P05177).
T1 construct: purchased Corning Biosciences 456203
T1 sequence (P05177 1-516): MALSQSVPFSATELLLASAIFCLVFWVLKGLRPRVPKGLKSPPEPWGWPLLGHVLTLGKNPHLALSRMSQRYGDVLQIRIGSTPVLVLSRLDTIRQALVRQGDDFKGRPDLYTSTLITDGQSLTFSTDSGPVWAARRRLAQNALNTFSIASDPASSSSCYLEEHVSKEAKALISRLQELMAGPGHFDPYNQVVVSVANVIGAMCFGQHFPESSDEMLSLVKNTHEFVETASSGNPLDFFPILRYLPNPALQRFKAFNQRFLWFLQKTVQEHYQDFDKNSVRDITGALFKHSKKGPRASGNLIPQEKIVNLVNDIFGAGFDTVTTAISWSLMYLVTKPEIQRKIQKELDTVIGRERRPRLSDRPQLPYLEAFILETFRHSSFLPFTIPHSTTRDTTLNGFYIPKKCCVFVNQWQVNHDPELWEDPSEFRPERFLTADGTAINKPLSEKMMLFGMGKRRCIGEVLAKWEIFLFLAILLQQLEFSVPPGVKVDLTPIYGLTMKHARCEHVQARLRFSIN
Kind of data set: Inhibition of recombinant CYP1A2 (probe phenacetin). The following applies: recombinant isozyme; mean ± SD of triplicate; unit not given (IC50 classes in μM); read-out: IC50 towards CYP1A2. The data set is classed as in vitro ADME. As to the method:
(§2) In this study, phenacetin (100 μM), coumarin (100 μM), bupropion (100 μM), paclitaxel (60 μM), tolbutamide (200 μM), mephenytoin (100 μM), chlorzoxazone (200 μM) and nifedipine (40 μM) have been used as the probe substrates for CYP1A2, 2A6, 2B6, 2C8, 2C9, 2C19, 2E1 and 3A4, respectively.

Data set [6] deals with CYP2C9 (Homo sapiens, UniProt P11712). Kind of data set: Inhibition of recombinant CYP2C9 (probe tolbutamide). The data set is classed as in vitro ADME. The following applies: for IC50: read-out: IC50 towards CYP2C9. As to the method: as §2
CYP2C9, sequence (P11712 whole entry): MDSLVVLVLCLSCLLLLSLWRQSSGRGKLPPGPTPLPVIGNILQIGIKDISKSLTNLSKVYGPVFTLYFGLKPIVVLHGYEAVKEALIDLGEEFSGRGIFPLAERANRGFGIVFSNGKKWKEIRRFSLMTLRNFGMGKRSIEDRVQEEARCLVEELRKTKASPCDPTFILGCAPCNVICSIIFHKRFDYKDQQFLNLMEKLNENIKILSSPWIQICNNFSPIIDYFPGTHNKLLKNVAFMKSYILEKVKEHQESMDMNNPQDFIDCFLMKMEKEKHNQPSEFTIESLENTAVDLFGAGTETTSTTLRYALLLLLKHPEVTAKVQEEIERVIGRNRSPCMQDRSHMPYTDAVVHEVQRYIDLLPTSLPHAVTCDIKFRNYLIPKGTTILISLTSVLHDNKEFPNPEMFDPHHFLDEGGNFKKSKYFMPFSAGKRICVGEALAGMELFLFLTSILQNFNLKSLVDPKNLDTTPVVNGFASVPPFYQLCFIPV
Data set [7] addresses CYP2C19 (Homo sapiens, UniProt P33261). Kind of data set: Inhibition of recombinant CYP2C19 (probe mephenytoin). The following applies: recombinant isozyme; mean ± SD of triplicate; unit not given (IC50 classes in μM); read-out: IC50 towards CYP2C19. The data set is classed as in vitro ADME. The method, then: as §2
Where [8] appears, read: recombinant isozyme, mean ± SD of triplicate, unit not given (IC50 classes in μM).

Like-named read-outs stand apart in the source and are kept apart here.

CYP2C19, sequence (P33261 whole entry): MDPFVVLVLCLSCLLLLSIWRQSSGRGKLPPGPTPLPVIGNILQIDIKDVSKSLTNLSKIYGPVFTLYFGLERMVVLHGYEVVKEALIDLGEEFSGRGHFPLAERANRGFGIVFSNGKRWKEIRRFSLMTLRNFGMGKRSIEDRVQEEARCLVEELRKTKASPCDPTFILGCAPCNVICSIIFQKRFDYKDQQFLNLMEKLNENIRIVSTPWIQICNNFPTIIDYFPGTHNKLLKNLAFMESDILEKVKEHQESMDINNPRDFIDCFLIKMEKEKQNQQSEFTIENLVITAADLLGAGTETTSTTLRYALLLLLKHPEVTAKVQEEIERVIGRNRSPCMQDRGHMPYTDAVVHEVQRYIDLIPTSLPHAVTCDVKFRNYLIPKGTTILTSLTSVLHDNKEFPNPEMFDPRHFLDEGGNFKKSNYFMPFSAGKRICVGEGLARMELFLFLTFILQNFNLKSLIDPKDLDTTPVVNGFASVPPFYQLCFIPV

Turning to `CC(C)=CCC[C@](C)(O[C@@H]1O[C@H](CO[C@@H]2O[C@H](CO)[C@@H](O)[C@H](O)[C@H]2O)[C@@H](O)[C@H](O)[C@H]1O)[C@H]1CC[C@]2(C)[C@@H]1[C@H](O)C[C@@H]1[C@@]3(C)CC[C@H](O[C@@H]4O[C@H](CO)[C@@H](O)[C@H](O)[C@H]4O[C@@H]4O[C@H](CO)[C@@H](O)[C@H](O)[C@H]4O)C(C)(C)[C@@H]3CC[C@]12C` [Compound D5, Ginsenoside Rb1], in data set [1], the clearance was 0.103 mL/min, the Vd was 0.047 ± 0.0199 L, the Cmax amounted to 497 ± 75.1 nM and the half-life is 7.22 ± 7.03 h. For the same compound, in data set [2], the CL renal is 0.00633 mL/min and the “fe-U,0–12h (fraction of dose excreted into urine)” value amounted to 6.41 ± 1.47%. In data set [3] (rat bile), the detection in bile result is “not detected in bile”. Further, the fraction unbound at 24 h in data set [4] came to 0.0096 ± 0.0009. Also, in data set [5], the IC50 is more than 100 µM. Moreover, the “inhibition type (smallest AIC and SC)” value in data set [6] (CYP2C9) is “Noncompetitive inhibition”. Besides, the Ki in data set [6] (CYP2C9, competitive model) amounted to 8.2 ± 1 µM. In data set [6] (CYP2C9, mixed-type model), the Ki amounted to 18.8 ± 4.3 µM and the α is 0.7 ± 0.3. The Ki in data set [6] (CYP2C9, noncompetitive model) is 16.1 ± 0.9 µM. The “Cmax/Ki ([I]/Ki)” value in data set [6] (CYP2C9, selected model, rat plasma Cmax) is 0.03. The IC50 in data set [6] (setting [8]) was determined as 8.8 ± 3.2 µM. Also, the half-maximal inhibitory concentration (IC50) in data set [6] (tolbutamide 200 μM) was found to be 8.81 µM. Moreover, in data set [7], the IC50 is more than 100 µM.

On to `CC(C)=CCC[C@](C)(O[C@@H]1O[C@H](CO)[C@@H](O)[C@H](O)[C@H]1O)[C@H]1CC[C@]2(C)[C@@H]1[C@H](O)C[C@@H]1[C@@]3(C)CC[C@H](O)C(C)(C)[C@@H]3[C@@H](O[C@@H]3O[C@H](CO)[C@@H](O)[C@H](O)[C@H]3O[C@@H]3O[C@@H](C)[C@H](O)[C@@H](O)[C@H]3O)C[C@]12C` [Compound C9, Ginsenoside Re], for which, in data set [1], the clearance was 2.61 mL/min, the Vd is 0.101 ± 0.027 L, the peak concentration (Cmax) amounted to 1340 ± 88.1 nM and the half-life is 1.07 ± 0.84 h. In addition, in data set [2], the CL renal was 0.767 mL/min and the “fe-U,0–12h (fraction of dose excreted into urine)” value is 29.54 ± 6.03%. Further, the “fraction of dose excreted unchanged via renal plus hepatobiliary excretion (sum of fe-U and fe-B)” value in data set [2] (rat urine + bile, 0–12 h) was approximately 60%. For the same compound, the “fe-B,0–12h (fraction of dose excreted into bile)” value in data set [3] (rat bile 0–12 h) turned out to be 28.27 ± 4.16%. For the same compound, the fraction unbound at 24 h in data set [4] is 0.874 ± 0.0659. The IC50 in data set [5] was more than 100 µM. Besides, in data set [6] (setting [8]), the IC50 was more than 100 µM. Moreover, in data set [7], the IC50 is more than 100 µM.
